{"source": "patent US12065442B2", "about": "“Tropomyosin receptor kinase (TRK) degradation compounds and methods of use” (Cullgen (Shanghai), Inc., priority 2018, dated 2024)"}
{"system": "KM12 cells", "experiment": "Cell viability assay (CellTiter-Glo) in KM12 cells", "assay_type": "cell-based", "details": "Homo sapiens, 72 h; Table 3; KM12 cell viability, CellTiter-Glo, 3 days; read-out: IC50", "units": {"IC50": "nM"}}
{"molecule": "O=C(CN1CCN(c2cccc(-c3cnc4ccc(N5CCC[C@@H]5c5cccc(F)c5)nn34)n2)CC1)NCCCCCCNc1ccc2c(c1)C(=O)N(C1CCC(=O)NC1=O)C2=O", "note": "(stereo partly drawn) [TR-128, N-(6-((2-(2,6-dioxopiperidin-3-yl)-1,3-dioxoisoindolin-5-yl)amino)hexyl)-2-(4-(6-(6-((R)-2-(3-fluorophenyl)pyrrolidin-1-yl)imidazo[1,2-b]pyridazin-3-yl)pyridin-2-yl)piperazin-1-yl)acetamide]", "IC50": 3.3}
{"molecule": "O=C(CN1CCN(c2cccc(-c3cnc4ccc(N5CCC[C@@H]5c5cccc(F)c5)nn34)n2)CC1)NCCOCCOCCOCCNc1ccc2c(c1)C(=O)N(C1CCC(=O)NC1=O)C2=O", "note": "(stereo partly drawn) [TR-129, N-(2-(2-(2-(2-((2-(2,6-dioxopiperidin-3-yl)-1,3-dioxoisoindolin-5-yl)amino)ethoxy)ethoxy)ethoxy)ethyl)-2-(4-(6-(6-((R)-2-(3-fluorophenyl)pyrrolidin-1-yl)imidazo[1,2-b]pyridazin-3-yl)pyridin-2-yl)piperazin-1-yl)acetamide]", "IC50": 4.4}
{"molecule": "O=C(CN1CCN(c2cccc(-c3cnc4ccc(N5CCC[C@@H]5c5cccc(F)c5)nn34)n2)CC1)NCCNc1ccc2c(c1)C(=O)N(C1CCC(=O)NC1=O)C2=O", "note": "(stereo partly drawn) [TR-130, N-(2-((2-(2,6-dioxopiperidin-3-yl)-1,3-dioxoisoindolin-5-yl)amino)ethyl)-2-(4-(6-(6-((R)-2-(3-fluorophenyl)pyrrolidin-1-yl)imidazo[1,2-b]pyridazin-3-yl)pyridin-2-yl)piperazin-1-yl)acetamide]", "IC50": 0.9}
{"molecule": "O=C(CN1CCN(c2cccc(-c3cnc4ccc(N5CCC[C@@H]5c5cccc(F)c5)nn34)n2)CC1)NCCCCCNc1ccc2c(c1)C(=O)N(C1CCC(=O)NC1=O)C2=O", "note": "(stereo partly drawn) [TR-131, N-(5-((2-(2,6-dioxopiperidin-3-yl)-1,3-dioxoisoindolin-5-yl)amino)pentyl)-2-(4-(6-(6-((R)-2-(3-fluorophenyl)pyrrolidin-1-yl)imidazo[1,2-b]pyridazin-3-yl)pyridin-2-yl)piperazin-1-yl)acetamide]", "IC50": 2.7}
{"molecule": "O=C(CN1CCN(c2cccc(-c3cnc4ccc(N5CCC[C@@H]5c5cccc(F)c5)nn34)n2)CC1)NCCOCCOCCOCCOCCOCCNc1ccc2c(c1)C(=O)N(C1CCC(=O)NC1=O)C2=O", "note": "(stereo partly drawn) [TR-132, N-(17-((2-(2,6-dioxopiperidin-3-yl)-1,3-dioxoisoindolin-5-yl)amino)-3,6,9,12,15-pentaoxaheptadecyl)-2-(4-(6-(6-((R)-2-(3-fluorophenyl)pyrrolidin-1-yl)imidazo[1,2-b]pyridazin-3-yl)pyridin-2-yl)piperazin-1-yl)acetamide]", "IC50": 4.4}
{"molecule": "O=C(CN1CCN(c2cccc(-c3cnc4ccc(N5CCC[C@@H]5c5cccc(F)c5)nn34)n2)CC1)NCCCCCCCCNc1ccc2c(c1)C(=O)N(C1CCC(=O)NC1=O)C2=O", "note": "(stereo partly drawn) [TR-133, N-(8-((2-(2,6-dioxopiperidin-3-yl)-1,3-dioxoisoindolin-5-yl)amino)octyl)-2-(4-(6-(6-((R)-2-(3-fluorophenyl)pyrrolidin-1-yl)imidazo[1,2-b]pyridazin-3-yl)pyridin-2-yl)piperazin-1-yl)acetamide]", "IC50": 22.8}
{"molecule": "O=C(CN1CCN(c2cccc(-c3cnc4ccc(N5CCC[C@@H]5c5cccc(F)c5)nn34)n2)CC1)NCCOCCOCCNc1ccc2c(c1)C(=O)N(C1CCC(=O)NC1=O)C2=O", "note": "(stereo partly drawn) [TR-134, N-(2-(2-(2-((2-(2,6-dioxopiperidin-3-yl)-1,3-dioxoisoindolin-5-yl)amino)ethoxy)ethoxy)ethyl)-2-(4-(6-(6-((R)-2-(3-fluorophenyl)pyrrolidin-1-yl)imidazo[1,2-b]pyridazin-3-yl)pyridin-2-yl)piperazin-1-yl)acetamide]", "IC50": 5.6}
{"molecule": "O=C(CN1CCN(c2cccc(-c3cnc4ccc(N5CCC[C@@H]5c5cccc(F)c5)nn34)n2)CC1)NCCOCCNc1ccc2c(c1)C(=O)N(C1CCC(=O)NC1=O)C2=O", "note": "(stereo partly drawn) [TR-135, N-(2-(2-((2-(2,6-dioxopiperidin-3-yl)-1,3-dioxoisoindolin-5-yl)amino)ethoxy)ethyl)-2-(4-(6-(6-((R)-2-(3-fluorophenyl)pyrrolidin-1-yl)imidazo[1,2-b]pyridazin-3-yl)pyridin-2-yl)piperazin-1-yl)acetamide]", "IC50": 0.9}
{"molecule": "O=C1CCC(N2C(=O)c3ccc(NCCCCCCCC(=O)N4CCN(c5ccc(C(=O)Nc6n[nH]c7ccc(Cc8cc(F)cc(F)c8)cc67)c(NC6CCOCC6)c5)CC4)cc3C2=O)C(=O)N1", "note": "(centres unmarked) [TR-136, N-(5-(3,5-Difluorobenzyl)-1H-indazol-3-yl)-4-(4-(8-((2-(2,6-dioxopiperidin-3-yl)-1,3-dioxoisoindolin-5-yl)amino)octanoyl)piperazin-1-yl)-2-((tetrahydro-2H-pyran-4-yl)amino)benzamide]", "IC50": 23.6}
{"molecule": "O=C1CCC(N2C(=O)c3ccc(NCCOCCOCCOCCOCCOCCC(=O)N4CCN(c5ccc(C(=O)Nc6n[nH]c7ccc(Cc8cc(F)cc(F)c8)cc67)c(NC6CCOCC6)c5)CC4)cc3C2=O)C(=O)N1", "note": "(centres unmarked) [TR-137, N-(5-(3,5-Difluorobenzyl)-1H-indazol-3-yl)-4-(4-(1-((2-(2,6-dioxopiperidin-3-yl)-1,3-dioxoisoindolin-5-yl)amino)-3,6,9,12,15-pentaoxaoctadecan-18-oyl)piperazin-1-yl)-2-((tetrahydro-2H-pyran-4-yl)amino)benzamide]", "IC50": 2.5}
{"molecule": "O=C1CCC(N2C(=O)c3ccc(NCCCCCC(=O)N4CCN(c5ccc(C(=O)Nc6n[nH]c7ccc(Cc8cc(F)cc(F)c8)cc67)c(NC6CCOCC6)c5)CC4)cc3C2=O)C(=O)N1", "note": "(centres unmarked) [TR-138, N-(5-(3,5-Difluorobenzyl)-1H-indazol-3-yl)-4-(4-(6-((2-(2,6-dioxopiperidin-3-yl)-1,3-dioxoisoindolin-5-yl)amino)hexanoyl)piperazin-1-yl)-2-((tetrahydro-2H-pyran-4-yl)amino)benzamide]", "IC50": 31.1}
{"molecule": "O=C1CCC(N2C(=O)c3ccc(NCCCCCCC(=O)N4CCN(c5ccc(C(=O)Nc6n[nH]c7ccc(Cc8cc(F)cc(F)c8)cc67)c(NC6CCOCC6)c5)CC4)cc3C2=O)C(=O)N1", "note": "(centres unmarked) [TR-139, N-(5-(3,5-Difluorobenzyl)-1H-indazol-3-yl)-4-(4-(7-((2-(2,6-dioxopiperidin-3-yl)-1,3-dioxoisoindolin-5-yl)amino)heptanoyl)piperazin-1-yl)-2-((tetrahydro-2H-pyran-4-yl)amino)benzamide]", "IC50": 27.1}
{"molecule": "O=C1CCC(N2C(=O)c3ccc(NCCOCCOCCOCCOCCC(=O)N4CCN(c5ccc(C(=O)Nc6n[nH]c7ccc(Cc8cc(F)cc(F)c8)cc67)c(NC6CCOCC6)c5)CC4)cc3C2=O)C(=O)N1", "note": "(centres unmarked) [TR-140, N-(5-(3,5-Difluorobenzyl)-1H-indazol-3-yl)-4-(4-(1-((2-(2,6-dioxopiperidin-3-yl)-1,3-dioxoisoindolin-5-yl)amino)-3,6,9,12-tetraoxapentadecan-15-oyl)piperazin-1-yl)-2-((tetrahydro-2H-pyran-4-yl)amino)benzamide]", "IC50": 1.6}
{"molecule": "O=C1CCC(N2C(=O)c3ccc(NCCOCCOCCC(=O)N4CCN(c5ccc(C(=O)Nc6n[nH]c7ccc(Cc8cc(F)cc(F)c8)cc67)c(NC6CCOCC6)c5)CC4)cc3C2=O)C(=O)N1", "note": "(centres unmarked) [TR-141, N-(5-(3,5-Difluorobenzyl)-1H-indazol-3-yl)-4-(4-(3-(2-(2-((2-(2,6-dioxopiperidin-3-yl)-1,3-dioxoisoindolin-5-yl)amino)ethoxy)ethoxy)propanoyl)piperazin-1-yl)-2-((tetrahydro-2H-pyran-4-yl)amino)benzamide]", "IC50": 2.6}
{"molecule": "O=C1CCC(N2C(=O)c3ccc(NCCCCC(=O)N4CCN(c5ccc(C(=O)Nc6n[nH]c7ccc(Cc8cc(F)cc(F)c8)cc67)c(NC6CCOCC6)c5)CC4)cc3C2=O)C(=O)N1", "note": "(centres unmarked) [TR-142, N-(5-(3,5-Difluorobenzyl)-1H-indazol-3-yl)-4-(4-(5-((2-(2,6-dioxopiperidin-3-yl)-1,3-dioxoisoindolin-5-yl)amino)pentanoyl)piperazin-1-yl)-2-((tetrahydro-2H-pyran-4-yl)amino)benzamide]", "IC50": 3.4}
{"molecule": "O=C1CCC(N2C(=O)c3ccc(NCCOCCC(=O)N4CCN(c5ccc(C(=O)Nc6n[nH]c7ccc(Cc8cc(F)cc(F)c8)cc67)c(NC6CCOCC6)c5)CC4)cc3C2=O)C(=O)N1", "note": "(centres unmarked) [TR-143]", "IC50": 5.6}
{"molecule": "O=C1CCC(N2C(=O)c3ccc(NCC(=O)N4CCN(c5ccc(C(=O)Nc6n[nH]c7ccc(Cc8cc(F)cc(F)c8)cc67)c(NC6CCOCC6)c5)CC4)cc3C2=O)C(=O)N1", "note": "(centres unmarked) [TR-144, N-(5-(3,5-Difluorobenzyl)-1H-indazol-3-yl)-4-(4-((2-(2,6-dioxopiperidin-3-yl)-1,3-dioxoisoindolin-5-yl)glycyl)piperazin-1-yl)-2-((tetrahydro-2H-pyran-4-yl)amino)benzamide]", "IC50": 2.2}
{"molecule": "O=C1CCC(N2C(=O)c3ccc(NCCC(=O)N4CCN(c5ccc(C(=O)Nc6n[nH]c7ccc(Cc8cc(F)cc(F)c8)cc67)c(NC6CCOCC6)c5)CC4)cc3C2=O)C(=O)N1", "note": "(centres unmarked) [TR-145, N-(5-(3,5-Difluorobenzyl)-1H-indazol-3-yl)-4-(4-(3-((2-(2,6-dioxopiperidin-3-yl)-1,3-dioxoisoindolin-5-yl)amino)propanoyl)piperazin-1-yl)-2-((tetrahydro-2H-pyran-4-yl)amino)benzamide]", "IC50": 3.1}
{"molecule": "O=C1CCC(N2C(=O)c3ccc(NCCOCCOCCOCCC(=O)N4CCN(c5ccc(C(=O)Nc6n[nH]c7ccc(Cc8cc(F)cc(F)c8)cc67)c(NC6CCOCC6)c5)CC4)cc3C2=O)C(=O)N1", "note": "(centres unmarked) [TR-146, N-(5-(3,5-Difluorobenzyl)-1H-indazol-3-yl)-4-(4-(3-(2-(2-(2-((2-(2,6-dioxopiperidin-3-yl)-1,3-dioxoisoindolin-5-yl)amino)ethoxy)ethoxy)ethoxy)propanoyl)piperazin-1-yl)-2-((tetrahydro-2H-pyran-4-yl)amino)benzamide]", "IC50": 4.2}
{"molecule": "O=C(CN1CCN(c2ccc(C(=O)Nc3n[nH]c4ccc(Cc5cc(F)cc(F)c5)cc34)c(NC3CCOCC3)c2)CC1)NCCCCCCNc1cccc2c1C(=O)N(C1CCC(=O)NC1=O)C2=O", "note": "(centres unmarked) [TR-147, N-(5-(3,5-Difluorobenzyl)-1H-indazol-3-yl)-4-(4-(2-((6-((2-(2,6-dioxopiperidin-3-yl)-1,3-dioxoisoindolin-4-yl)amino)hexyl)amino)-2-oxoethyl)piperazin-1-yl)-2-((tetrahydro-2H-pyran-4-yl)amino)benzamide]", "IC50": 6.4}
